Experimental data from patent publication US6716872B2, “Substituted pyrrolidine-2,3,4-trione 3-oxime derivatives which are active as NMDA receptor antagonists” (Gruenenthal GmbH, priority 1999, dated 2004).

Key:
male NMRI mice = assay: Phenylquinone-induced writhing test in the mouse; format: in vivo
Experimental: The study of the analgesic activity was also carried out in the phenylquinone-induced writhing in the mouse (modified by I. C. Hendershot et al, (1959) J. Pharmacol. Exp. Ther., vol. 125, pp. 237-240). Male NMRI mice weighing 25 to 30 g (Iffa, Credo, Belgium, were used for this. Groups of 10 animals per substance dose received 0.3 ml/mouse of a 0.02% aqueous solution of phenylquinone (phenylbenzoquinone, Sigma, Deisenhofen; preparation of the solution with the addition of 5% ethanol and storage in a water bath at 45° C.) administered intraperitoneally 10 minutes after intravenous administration of the particular compound. The animals were placed individually in observation cages. The number of pain-induced stretching movements (so-called writhing reactions=straightening of the body with stretching of the hind extremities) was counted by means of a push-button counter for 5 to 20 minutes after the administration of phenylquinone. Animals which received only physiological saline solution were also run as a control. All the substances were tested in the standard dosage of 10 mg/kg of body weight of the mouse. The percentage inhibition (% inhibition) of the writhing reaction by a substance was calculated according to the following equation: [formula]
For some of the compounds according to the invention the ED50 values with the 95% confidence range of the writhing reaction were calculated by means of regression analysis (evaluation program from Martens EDV Service, Eckental) from the dose-dependent decrease in the writhing reactions compared with phenylquinone control groups investigated in parallel.
The study of the analgesic activity was carried out in the phenylquinone-induced writhing in mice as described above.

male albino mice (NMRI) = assay: Formalin test in mice, second (late) phase; format: in vivo; details: second (late) phase of formalin test
Experimental: The studies for determination of the antinociceptive action of the compounds according to the invention were carried out in the formalin test in male albino mice (NMRI, 25-35 g, Iffa Credo, Belgium).
The compounds according to the invention were investigated in the second phase of the formalin test to obtain information on the actions of the compounds according to the invention on chronic/inflammatory pain.
By a single subcutaneous formalin injection (20 μl, 1% aqueous solution) into the dorsal side of the right hind paw of freely mobile test animals, a nociceptive reaction was induced, which manifests itself in significant licking and biting of the paw affected.
For the investigation period in the second (late) phase of the formalin test, the nociceptive behavior was recorded continuously by observing the animals. […] After injection of substances which have an antinociceptive action in the formalin test, the modes of behaviour described for the animals are reduced, and possibly even eliminated. […] The behaviour of the rats after administration of the substance was compared with a control group (10 mice per substance dose).
On the basis of the quantification of the pain properties, the action of the substance in the formalin test was determined as a change from the control in per cent. The ED50 calculations were made by means of regression analysis. […]

[1] = target: T1, glycine binding site of the NMDA receptor channel (Rattus norvegicus, UniProt P35439); assay: Receptor binding test, displacement of (3H)-MDL 105.519 on rat cerebral membrane homogenates; details: rat cortex and hippocampus membranes, 1 nmol/l (3H)-MDL 105.519; Ki from IC50 by Cheng-Prusoff
T1 construct: from tissue; host or cells: rat brain cortex and hippocampus membrane homogenate (male Wistar rats, Charles River)
Experimental: Studies for determination of the affinity of the substituted pyrrolidine-2,3,4-trione 3-oxime derivatives of the general formula I according to the invention for the glycine binding site of the NMDA receptor channel were carried out on cerebral membrane homogenates (homogenate of the cortex and hippocampus area from the brain of male rats, Wistar strain, Charles River, WIGA GmbH, Sulzbach, Germany) by the method of Baron B. M. et al, J. Pharmacol. Exp. Ther., vol. 279, pp.62-68 (1996). […]
In the binding test, 50 mmol/l TRIS-acetate buffer pH 7.0 was employed as the buffer and 1 nmol/l (^3H)-MDL 105.519 (Baron B. M. et al, J. Pharmacol. Exp. Ther., vol. 279, pp. 62-68 (1996)) was employed as the radioactive ligand. The proportion of non-specific binding was determined in the presence of 1 mmol/l glycine.
In further batches, the compounds according to the invention were added in concentration series and the displacement of the radioactive ligand from its specific binding to the glycine binding site of the NMDA receptor channel was determined. […]

| melting point [°C] | Ki [1] [nM] | SMILES | % inhibition of the writhing reaction at 10 mg/kg intravenously (male NMRI mice) [%] | % change from the control at 10 mg/kg (male albino mice (NMRI)) [%] |
| --- | --- | --- | --- | --- |
| – | – | O=C1NC(=Cc2cccc(Cl)c2Cl)C(=O)C1=NO [Example 6, 5-(2,3-Dichlorobenzylidene)-pyrrolidine-2,3,4-trione 3-oxime] | 52 | – |
| 176 | – | O=C1NC(=Cc2ccccc2Cl)C(=O)C1=NO [Example 4, 5-(2-Chlorobenzylidene)-pyrrolidine-2,3,4-trione 3-oxime] | 55 | – |
| 185 | – | O=C1NC(=Cc2cccc(Cl)c2)C(=O)C1=NO [Example 9, 5-(3-Chlorobenzylidene)-pyrrolidine-2,3,4-trione 3-oxime] | 81 | – |
| 190 | – | O=C1NC(=Cc2ccc(Cl)cc2)C(=O)C1=NO [Example 5, 5-(4-Chlorobenzylidene)-pyrrolidine-2,3,4-trione 3-oxime] | 50 | – |
| 232 | – | O=C1NC(=Cc2c(Cl)cccc2Cl)C(=O)C1=NO [Example 8, 5-(2,6-Dichlorobenzylidene)-pyrrolidine-2,3,4-trione 3-oxime] | 51 | – |
| 180 | – | O=C1NC(=Cc2ccc(Cl)cc2Cl)C(=O)C1=NO [Example 7, 5-(2,4-Dichlorobenzylidene)-pyrrolidine-2,3,4-trione 3-oxime] | 46 | – |
| 174 | – | COC(=C1NC(=O)C(=NO)C1=O)c1ccccc1 [Example 1, 5-(Methoxyphenylmethylene)-pyrrolidine-2,3,4-trione 3-oxime] | – | – |
| 158 | 430 | O=C1NC(=C(Br)c2ccccc2)C(=O)C1=NO [Example 2, 5-(Bromophenylmethylene)-pyrrolidine-2,3,4-trione 3-oxime] | – | 36.3 |
